In patent publication US11680082B2, “Conjugates of montelukast and peptides” (ENLITISA (SHANGHAI) PHARMACEUTICAL CO., LTD, priority 2018, dated 2023):
Non-standard residues stand in square brackets, D forms with d. No end group written: not given here. Hyp = O=C(O)[C@@H]1C[C@@H](O)CN1

Experiments:
[1] = test system: phenol red excretion in trachea; experiment: Expectorant experiment, phenol red excretion method; type: in vivo, mice; conditions: Positive control, 0.15 g/kg intragastric, 5 days
Procedure: 50 Mice were randomly divided into 5 groups according to body weight: Normal saline, negative control group, ammonium chloride positive control group and high, medium and low dose of test drug (either Compound A, above, or Compound E, below). 10 mice in each group, 5 males and 5 females.
Compound A was administered via atomization inhalation (0.15 mL/min) for 1 min, once daily for 5 days and the positive control drug was administered by intragastric administration for 5 days.
Half an hour after the last administration of Compound A, 5% phenol red solution was injected into the abdominal cavity. The mice were sacrificed after a further half an hour. The skin of the neck was removed and the trachea from the thyroid cartilage to the bifurcation was separated, soaked it in 5% sodium bicarbonate solution with constant shaking. The sodium bicarbonate solution was used to detect the phenol red content.
The absorbance at 558 nm was detected by spectrophotometry (721G Spectrophotometer, Shanghai Jingke, Shanghai, China). The optical density value was used to calculate the phenol red content In the trachea by reference to the phenol red standard curve. The results of each group and the negative control group were tested for significant t-test.

diabetic skin wound [2] = experiment: Diabetic wound model II; type: in vivo, db/db mice (C57BL/KsJ-db/db)
Procedure: A similar experiment with essentially the same protocol to that described in Example 7 above was carried out on 8 to 12 week-old male db/db mice (C57BL/KsJ-db/db) with a body weight of 35-45 g/mouse (Changzhou Cvens Experimental Animal Co. Ltd.).
Different concentrations of Compound A and Compound 1 (“A” and “1” respectively, as indicated in the Table 5 below) were prepared in substantially the same way as described in Examples 6 and 7 above.
Different drugs were administrated topically at 50 μL/wound, once daily from Day 0 to Day 12, as show in Table 5 below.
The model group was given same amount of normal saline. There were 8 mice in each group. 4 mice were in the control group. The skin pieces taken during wound creation were used as the samples at Day 7 for the control group.
Histological specimens were analyzed as described in Example 7 above, except that the collagen deposition score criterion for the Masson stained sample were as follows. A comparison was made with normal tissue. No clear blue staining was given 0 points; blue fiber appearing in a scattered pattern was scored as 1 points; if more blue fiber appeared, this was scored as 2 points, and a diffuse blue colour was given 3 points.

diabetic skin wound [3] = experiment: Diabetic wound model I; type: in vivo, db/db mice (C57BL/KsJ-db/db); conditions: histology
Procedure: A similar experiment with essentially the same protocol to that described in Example 6 above was carried out on 8 to 12 week-old male db/db mice (C57BL/KsJ-db/db), with a body weight of 35-45 g/mouse (Changzhou Cvens Experimental Animal Co. Ltd.).
An EMS skin biopsy punch with a 18 mm diameter was used to make wounds.
Different drugs were administrated topically at 50 μL/wound, once daily from Day 0 to Day 12. The model group was given same amount of normal saline.
Photographs were taken for each wound every other day from Day 0. Photos were scanned into a computer, and wound areas calculated using ImageJ image analysis software (National Institute of Health, USA).
The unhealed wound area was expressed as a percentage of the original wound area: At/A0×100%, where A0 and At refer to the initial area at Day 0 and the wound area at the date of measurement (time t), respectively.
Histological specimens were analyzed and skin regeneration, fibroblast proliferation, collagen regeneration scores (Masson score) and inflammation scores were estimated as follows.
The HE and Masson stained slices were observed under an optical microscope and were scored (1, 2 or 3 points) according to the following criteria. […]

[4] = test system: xylene induced ear swelling; experiment: Mouse ear swelling model I (xylene); type: in vivo, BALB/c mice; conditions: xylene on right ear, topical treatment, 40 minutes; (right ear weight−left ear weight)/left ear weight
Procedure: The mice were randomly divided into 7 groups as described in Table 1 below, with 5 mice in each group
The left ear of each mouse was used as autologous control. 20 μL of xylene (Shanghai Aladdin Bio-Chem Technology Co., Ltd., Shanghai, China) was applied to the right ear of each mouse, both inside and outside. The ear started to swell in about 4 minutes. Then, 0.08 g of each study treatments or vehicles were applied to the right ears in each group. The mice were put back into their cages.
Vehicle-1 in Table 1 below is the cream base without active ingredients. Vehicle-2 in Table 1 below is the gel base without active ingredients.
The mice were sacrificed by cervical dislocation after 40 minutes. The left and right ears were cut off. A skin pouch (Electron Microscopy Sciences, Hatfield, Pa., USA) with a diameter of 8 mm was used to take a piece of the ear from the same site of both ears.

Cl.N [NH4Cl, ammonium chloride]
Phenol red concentration [1]: 10.335 ± 0.337 µg/mL

Ala-Lys-Pro-Ser-Tyr-Hyp-Hyp-Thr-Tyr-Lys (AKPSY[Hyp][Hyp]TYK; not fully specified; printed as Ala-Lys-Pro-Ser-Tyr-Hyp-Hyp-Thr-Tyr-Lys) [Compound 1]
ratio of remaining wound area of initial wound (Mean) (diabetic skin wound [2]; high dose (H), D1): 1.000
ratio of remaining wound area of initial wound (Mean) (diabetic skin wound [2]; high dose (H), D2): 1.051
ratio of remaining wound area of initial wound (Mean) (diabetic skin wound [2]; high dose (H), D4): 0.821
ratio of remaining wound area of initial wound (Mean) (diabetic skin wound [2]; high dose (H), D6): 0.718
ratio of remaining wound area of initial wound (Mean) (diabetic skin wound [2]; high dose (H), D8): 0.486
ratio of remaining wound area of initial wound (Mean) (diabetic skin wound [2]; high dose (H), D10): 0.478
ratio of remaining wound area of initial wound (Mean) (diabetic skin wound [2]; high dose (H), D12): 0.368
ratio of remaining wound area of initial wound (Mean) (diabetic skin wound [2]; low dose (L), D1): 1.000
ratio of remaining wound area of initial wound (Mean) (diabetic skin wound [2]; low dose (L), D2): 0.860
ratio of remaining wound area of initial wound (Mean) (diabetic skin wound [2]; low dose (L), D4): 0.753
ratio of remaining wound area of initial wound (Mean) (diabetic skin wound [2]; low dose (L), D6): 0.593
ratio of remaining wound area of initial wound (Mean) (diabetic skin wound [2]; low dose (L), D8): 0.467
ratio of remaining wound area of initial wound (Mean) (diabetic skin wound [2]; low dose (L), D10): 0.433
ratio of remaining wound area of initial wound (Mean) (diabetic skin wound [2]; low dose (L), D12): 0.306
wound healing (diabetic skin wound [2]; low dose, earlier stages after wound infliction): prompted wound healing in the earlier stages
ratio of remaining wound area of initial wound (Mean) (diabetic skin wound [2]; medium dose (M), D1): 1.000
ratio of remaining wound area of initial wound (Mean) (diabetic skin wound [2]; medium dose (M), D2): 0.991
ratio of remaining wound area of initial wound (Mean) (diabetic skin wound [2]; medium dose (M), D4): 0.895
ratio of remaining wound area of initial wound (Mean) (diabetic skin wound [2]; medium dose (M), D6): 0.786
ratio of remaining wound area of initial wound (Mean) (diabetic skin wound [2]; medium dose (M), D8): 0.552
ratio of remaining wound area of initial wound (Mean) (diabetic skin wound [2]; medium dose (M), D10): 0.490
ratio of remaining wound area of initial wound (Mean) (diabetic skin wound [2]; medium dose (M), D12): 0.344
Fibroblast proliferation score (diabetic skin wound [3]): could promote
Skin regeneration score (diabetic skin wound [3]): could promote the skin regeneration
Swelling rate [4]: 61.5%
